In series [1] the target is T1, hDAT (Homo sapiens, UniProt Q01959). As to conditions: 10 μM; [^3H]24 binding, PDSP; ref Janowsky et al.[3]; cited from earlier work.
The test system of the next series is mouse. The note with it: cited from earlier work.
In series [2] the test system is cytochrome P450 (5 isozymes). As to conditions: cited from earlier work.
For series [3] the following is noted: cited from earlier work.
The conditions of series [4]: metabolomic study; cited from earlier work.
The target of a further series is mDAT (Mus musculus, UniProt Q61327). The series is described as follows: [^125I]23 binding to mDAT expressed in HEK-293 cells.
Chain of mDAT (Q61327 whole entry): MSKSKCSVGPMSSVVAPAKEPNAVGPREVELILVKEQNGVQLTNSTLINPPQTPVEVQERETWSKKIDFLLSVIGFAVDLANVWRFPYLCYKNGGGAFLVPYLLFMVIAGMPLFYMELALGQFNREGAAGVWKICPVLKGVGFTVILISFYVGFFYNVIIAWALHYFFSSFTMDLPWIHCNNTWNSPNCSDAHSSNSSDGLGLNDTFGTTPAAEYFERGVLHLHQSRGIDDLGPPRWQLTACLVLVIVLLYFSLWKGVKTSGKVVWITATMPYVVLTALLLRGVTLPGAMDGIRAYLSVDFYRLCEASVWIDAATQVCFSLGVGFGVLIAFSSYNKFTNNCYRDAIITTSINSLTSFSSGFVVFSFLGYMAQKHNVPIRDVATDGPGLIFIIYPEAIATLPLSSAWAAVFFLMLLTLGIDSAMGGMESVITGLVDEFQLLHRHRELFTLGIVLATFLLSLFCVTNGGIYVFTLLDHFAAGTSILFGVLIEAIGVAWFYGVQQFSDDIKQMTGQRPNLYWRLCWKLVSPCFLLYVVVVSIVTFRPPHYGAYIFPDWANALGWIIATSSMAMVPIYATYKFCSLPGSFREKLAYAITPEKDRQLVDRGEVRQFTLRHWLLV
In series [5] the target is T1, hDAT. As to conditions: read-out: Kd of [^125I]23 at hDAT; no modulator; cited from earlier work.
Series [6] addresses T1, hDAT. Kind of series: PDSP screen: [^3H]24 binding at hDAT. The note with it: read-out: hDAT Binding Inhibition, % of control.
In series [7] the target is T1, hDAT. Kind of series: [^3H]26 binding to HEK-hDAT membranes.

pKd: −log10 of the molar value. Where two headings read alike, the source gives them in different places.

T1 sequence (Q01959 whole entry): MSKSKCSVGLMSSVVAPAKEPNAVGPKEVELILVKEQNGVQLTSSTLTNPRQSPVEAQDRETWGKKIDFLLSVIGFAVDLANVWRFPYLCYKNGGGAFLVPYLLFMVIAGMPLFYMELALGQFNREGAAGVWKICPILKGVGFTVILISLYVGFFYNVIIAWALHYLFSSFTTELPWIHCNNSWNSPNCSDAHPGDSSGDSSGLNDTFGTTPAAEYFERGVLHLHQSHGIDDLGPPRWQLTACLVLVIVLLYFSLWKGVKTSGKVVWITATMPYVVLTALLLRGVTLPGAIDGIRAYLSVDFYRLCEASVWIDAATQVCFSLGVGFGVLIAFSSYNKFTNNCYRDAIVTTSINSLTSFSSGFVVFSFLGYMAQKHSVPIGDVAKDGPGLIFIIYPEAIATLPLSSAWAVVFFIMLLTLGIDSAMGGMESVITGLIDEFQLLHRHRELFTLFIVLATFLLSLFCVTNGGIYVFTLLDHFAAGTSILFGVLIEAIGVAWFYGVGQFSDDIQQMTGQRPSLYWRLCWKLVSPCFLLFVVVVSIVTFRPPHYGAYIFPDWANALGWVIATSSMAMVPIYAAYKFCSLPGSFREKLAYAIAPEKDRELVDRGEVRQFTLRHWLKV

Turning to `CNC(=O)[C@@]12C[C@@H]1[C@@H](n1cnc3c(NC)nc(C#Cc4ccc(Cl)s4)nc31)[C@H](O)[C@@H]2O` [compound 1, (1S,2R,3S,4R,5S)-4-(2-((5-chlorothiophen-2-yl)ethynyl)-6-(methylamino)-9H-purin-9-yl)-2,3-dihydroxy-N-methylbicyclo[3.1.0]hexane-1-carboxamide], the “hDAT Binding Inhibition, % of control” value at hDAT [1] is reported as “NE (no effect)”. Further, the values for the locomotor activity entry with mouse (10 mg/kg) and with mouse (30 mg/kg) were “did not significantly stimulate locomotor activity” and “reduced locomotor activity”, respectively. In addition, the “inhibition of cytochrome P450 (5 isozymes)” value in series [2] is listed as “do not inhibit”. Also, the “stability in the presence of liver microsomes, plasma and simulated body fluids” value in [3] was “stable”. In series [4], the tolerability in vivo entry is recorded as “well tolerated”.
For orientation: pKd means the Kd on a negative log10 scale, so that one unit is a factor of ten. Take `COC(=O)[C@H]1[C@@H](c2ccc(I)cc2)CC2CC[C@H]1N2C` [compound 23, methyl (1R,2S,3S)-3-(4-iodophenyl)-8-methyl-8-azabicyclo[3.2.1]octane-2-carboxylate]: the negative-log Kd (pKd) is 8.41 at mDAT and 8.89 on hDAT [5].
One may read the inhibition as the relative decrease from the control value, in per cent. Consider `CNc1nc(C#Cc2ccc(Cl)s2)nc2c1ncn2[C@@H]1O[C@H](C(=O)OC)[C@@H](O)[C@H]1O` [compound 29, Methyl (2S,3S,4R,5R)-5-(2-((5-Chlorothiophen-2-yl)ethynyl)-6-(methylamino)-9H-purin-9-yl)-3,4-dihydroxytetrahydrofuran-2-carboxylate], for which the inhibition at 10 µM at hDAT [6] was less than -20%. Moreover, the “fold higher EC50 than 9 for enhancement of [^3H]26 binding at hDAT” value on hDAT [7] was determined as 7 fold.

Values taken from publication PMC5501184 (Journal of medicinal chemistry, 2017).
